The source of these data is patent US12543738B2 (Bayer Aktiengesellschaft, priority 2020, dated 2026).

The nature of data set [1]: Measurement of LogP values by HPLC on reversed phase columns (EEC directive 79/831 Annex V.A8). The format is physicochemical. To be noted: method [a]: LC-UV, acidic range, 0.1% formic acid in water and acetonitrile; compounds of formula (I-1), Table 1. The protocol: Calibration was done with straight-chain alkan2-ones (with 3 to 16 carbon atoms) with known LogP values (measurement of LogP values using retention times with linear interpolation between successive alkanones). Lambda-max-values were determined using UV-spectra from 200 nm to 400 nm and the peak values of the chromatographic signals

Another data set relates to Botrytis cinerea. In words: In vivo preventive test on Botrytis cinerea (grey mould). To be noted: 500 ppm of active ingredient, preventive spray on gherkin or cabbage, evaluated 4 to 5 days after inoculation, read-out: efficacy. On the procedure:
The active ingredients were made soluble and homogenized in a mixture of Dimethyl sulfoxide/Acetone//Tween® 80 and then diluted in water to the desired concentration. The young plants of gherkin or cabbage were treated by spraying the active ingredient prepared as described above. Control plants were treated only with an aqueous solution of Acetone/Dimethyl sulfoxide/Tween® 80. After 24 hours, the plants were contaminated by spraying the leaves with an aqueous suspension of Botrytis cinerea spores.

In another data set the test system is Pyrenophora teres. In words: In vivo preventive test on Pyrenophora teres (net blotch on barley). To be noted: 240 h, 500 ppm of active ingredient, preventive spray on barley, evaluated 10 days after inoculation, read-out: efficacy. On the procedure: The active ingredients were made soluble and homogenized in a mixture of Dimethyl sulfoxide/Acetone//Tween® 80 and then diluted in water to the desired concentration. The young plants of barley were treated by spraying the active ingredient prepared as described above. Control plants were treated only with an aqueous solution of Acetone/Dimethyl sulfoxide/Tween® 80. After 24 hours, the plants were contaminated by spraying the leaves with an aqueous suspension of Pyrenophora teres spores.

The next data set concerns Sphaerotheca fuliginea. In words: In vivo preventive test on Sphaerotheca fuliginea (powdery mildew on cucurbits). Particulars: Podosphaera fuliginea, 192 h; 500 ppm of active ingredient; preventive spray on gherkin; evaluated 8 days after inoculation; read-out: efficacy. On the procedure:
The active ingredients were made soluble and homogenized in a mixture of Dimethyl sulfoxide/Acetone//Tween® 80 and then diluted in water to the desired concentration. The young plants of gherkin were treated by spraying the active ingredient prepared as described above. Control plants were treated only with an aqueous solution of Acetone/Dimethyl sulfoxide/Tween® 80. After 24 hours, the plants were contaminated by spraying the leaves with an aqueous suspension of Sphaerotheca fuliginea spores.

Data set [2] relates to Colletotrichum lindemuthianum. In words: In vivo preventive test on Colletotrichum lindemuthianum (leaf spot on bean). To be noted: 168 h, 500 ppm of active ingredient, preventive spray on bean, evaluated 7 days after inoculation, read-out: efficacy. On the procedure:
The active ingredients were made soluble and homogenized in a mixture of Dimethyl sulfoxide/Acetone//Tween® 80 and then diluted in water to the desired concentration. The young plants of bean were treated by spraying the active ingredient prepared as described above. Control plants were treated only with an aqueous solution of Acetone/Dimethyl sulfoxide/Tween® 80. After 24 hours, the plants were contaminated by spraying the leaves with an aqueous suspension of Colletotrichum lindemuthianum spores.

Another data set deals with Alternaria alternata. In words: Alternaria alternata in vitro cell test. In kind it is cell-based. To be noted: 120 h, 20 ppm of active ingredient, liquid culture, 5 days incubation, read-out: efficacy (inhibition of fungal growth). The protocol: (§1) • Solvent: DMSO • Culture medium: 14.6 g anhydrous D-glucose (VWR), 7.1 g Mycological Peptone (Oxoid), 1.4 g granulated Yeast Extract (Merck), QSP 1 liter • Inoculum: spores suspension Fungicides were solubilized in DMSO and the solution used to prepare the required range of concentrations. […] A spore suspension of A. alternata was prepared and diluted to the desired spore density. Fungicides were evaluated for their ability to inhibit spore germination and mycelium growth in liquid culture assay. The compounds were added in the desired concentration to the culture medium with spores. After 5 days incubation, fungi-toxicity of compounds was determined by spectrometric measurement of mycelium growth. Inhibition of fungal growth was determined by comparing the absorbance values in wells containing the fungicides with the absorbance in control wells without fungicides.

Another data set has as its system Fusarium culmorum. In words: Fusarium culmorum in vitro cell test. In kind it is cell-based. To be noted: 96 h, 20 ppm of active ingredient, liquid culture, 4 days incubation, read-out: efficacy (inhibition of fungal growth). On the procedure:
• Solvent: DMSO • Culture medium: 14.6 g anhydrous D-glucose (VWR), 7.1 g Mycological Peptone (Oxoid), 1.4 g granulated Yeast Extract (Merck), QSP 1 liter • Inoculum: spore suspension • Fungicides were solubilized in DMSO and the solution used to prepare the required range of concentrations. The final concentration of DMSO used in the assay was ≤1%.
A spore suspension of F. culmorum was prepared and diluted to the desired spore density.
Fungicides were evaluated for their ability to inhibit spore germination and mycelium growth in liquid culture assay. The compounds were added in the desired concentration to the culture medium with spores. After 4 days incubation, fungi-toxicity of compounds was determined by spectrometric measurement of mycelium growth. Inhibition of fungal growth was determined by comparing the absorbance values in wells containing the fungicides with the absorbance in control wells without fungicides.

The subject of a further data set is Pyricularia Oryzae. In words: microbe, parasite or virus in culture. To be noted: 120 h, read-out: efficacy (inhibition of fungal growth). In kind it is cell-based.
The subject of data set [3] is Colletotrichum lindemuthianum. In words: Colletotrichum lindemuthianum in vitro cell test. The format is cell-based. Particulars: 144 h, 20 ppm of active ingredient, liquid culture, 6 days incubation, read-out: efficacy (inhibition of fungal growth). On the procedure: as §1, with “of C. lindemuthianum” for “of A. alternata”, “inhibit spores” for “inhibit spore”, “After 6” for “After 5”

Another data set relates to Septoria tritici. In words: Septoria tritici in vitro cell test. The format is cell-based. To be noted: Zymoseptoria tritici, 168 h; 20 ppm of active ingredient; liquid culture, 7 days incubation; read-out: efficacy (inhibition of fungal growth). On the procedure:
• Solvent: DMSO • Culture medium: 1 g KH2PO4 (VWR), 1 g K2HPO4 (VWR), 0.5 g Urea (VWR), 3 g KNO3 (Prolabo), 10 g saccharose (VWR), 0.5 g MgSO4, 7H2O (Sigma), 0.07 g CaCl2, 2H2O (Prolabo), 0.2 mg MnSO4, H2O (Sigma), 0.6 mg CuSO4, 5H2O (Sigma), 7.9 mg ZnSO4, 7H2O (Sigma), 0.1 mg H3BO3 (Merck), 0.14 mg NaMoO4, 2H2O (Sigma), 2 mg thiamine (Sigma), 0.1 mg biotine (VWR), 4 mg FeSO4, 7H2O (Sigma), QSP 1 liter • Inoculum: spore suspension Fungicides were solubilized in DMSO and the solution used to prepare the required range of concentrations. […] A spore suspension of S. tritici was prepared and diluted to the desired spore density. Fungicides were evaluated for their ability to inhibit spore germination and mycelium growth in liquid culture assay. The compounds were added in the desired concentration to the culture medium with spores. […] Inhibition of fungal growth was determined by comparing the absorbance values in wells containing the fungicides with the absorbance in control wells without fungicides.

For the next data set, the system named is Alternaria brassicae. In words: In vivo preventive test on Alternaria brassicae (leaf spot on radish or cabbage). To be noted: 144 h, 500 ppm of active ingredient, preventive spray on radish or cabbage, evaluated 6 days after inoculation, read-out: efficacy. The protocol:
The active ingredients were made soluble and homogenized in a mixture of Dimethyl sulfoxide/Acetone//Tween® 80 and then diluted in water to the desired concentration. The young plants of radish or cabbage were treated by spraying the active ingredient prepared as described above. Control plants were treated only with an aqueous solution of Acetone/Dimethyl sulfoxide/Tween® 80. After 24 hours, the plants were contaminated by spraying the leaves with an aqueous suspension of Alternaria brassicae spores.

As for `Cc1ccc(C)c(CC2CON=C(c3cc(C)nnc3Oc3cccc(Cl)c3)N2)c1` (racemic) [Compound I-011, (5RS)-3-[3-(3-chlorophenoxy)-6-methylpyridazin-4-yl]-5-(2,5-dimethylbenzyl)-5,6-dihydro-4H-1,2,4-oxadiazine], the chromatographic logP (usually lipophilicity estimated from chromatographic retention) in data set [1] came out at 3.7. Also, the pest or weed control at 500 ppm (in the data set on Botrytis cinerea; in the data set on Pyrenophora teres; in the data set with Sphaerotheca fuliginea; in data set [2]; in the data set with Alternaria brassicae) was 90 to 100% throughout. For the same compound, the inhibition – broadly, the drop in the measured response relative to a control, in per cent – at 20 ppm with Alternaria alternata was 90 to 100%; in the data set with Fusarium culmorum it was 70 to 79%; in the data set with Pyricularia Oryzae, 90 to 100%; in [3], 90 to 100%; with Septoria tritici, 90 to 100%.

The compound `Cc1cc(C)cc(CC2CON=C(c3cc(C)nnc3Oc3cccc(Cl)c3)N2)c1` (racemic) [Compound I-009, (5RS)-3-[3-(3-chlorophenoxy)-6-methylpyridazin-4-yl]-5-(3,5-dimethylbenzyl)-5,6-dihydro-4H-1,2,4-oxadiazine] registered a chromatographic logP in [1] of 3.87. Also, the inhibition at 20 ppm (in the data set on Alternaria alternata; with Fusarium culmorum; in the data set with Pyricularia Oryzae; in data set [3]; with Septoria tritici) was 90 to 100% throughout.

`C[C@@H](F)c1cc(C2=NOC[C@@H](Cc3ccc(Cl)cc3Cl)N2)c(Oc2cccc(C3CC3)c2F)nn1` (racemic) [Compound I-018, (5RS)-3-{3-(3-cyclopropyl-2-fluorophenoxy)-6-[(1RS)-1-fluoroethyl]pyridazin-4-yl}-5-(2,4-dichlorobenzyl)-5,6-dihydro-4H-1,2,4-oxadiazine] yielded a chromatographic logP in data set [1] of 4.74. Besides, the pest or weed control at 500 ppm (in the data set with Botrytis cinerea; with Pyrenophora teres; in the data set on Sphaerotheca fuliginea; in data set [2]; in the data set on Alternaria brassicae) was 90 to 100% throughout. Also, the inhibition at 20 ppm (with Alternaria alternata; in the data set with Fusarium culmorum; in the data set on Pyricularia Oryzae; in [3]; in the data set with Septoria tritici) was 90 to 100% throughout.

Take `CCc1cccc(Oc2nnc(C)cc2C2=NOCC(Cc3ccc(C)cc3C)N2)c1F` (racemic) [Compound I-014, (5RS)-5-(2,4-dimethylbenzyl)-3-[3-(3-ethyl-2-fluorophenoxy)-6-methylpyridazin-4-yl]-5,6-dihydro-4H-1,2,4-oxadiazine]: the chromatographic logP in data set [1] amounted to 4.12. Besides, the pest or weed control at 500 ppm (in the data set with Botrytis cinerea; with Pyrenophora teres; in the data set with Sphaerotheca fuliginea; in data set [2]; in the data set with Alternaria brassicae) was 90 to 100% throughout. Further, the inhibition at 20 ppm (in the data set with Alternaria alternata; in the data set with Fusarium culmorum; in the data set with Pyricularia Oryzae; in data set [3]; in the data set with Septoria tritici) was 90 to 100% throughout.

For the compound `Cc1cc(C)cc(CC2CON=C(c3cc(C)nnc3Oc3cccc(Cl)c3F)N2)c1` (racemic) [Compound I-010, (5RS)-3-[3-(3-chloro-2-fluorophenoxy)-6-methylpyridazin-4-yl]-5-(3,5-dimethylbenzyl)-5,6-dihydro-4H-1,2,4-oxadiazine], the chromatographic logP in [1] was determined as 4.01. For the same compound, the pest or weed control at 500 ppm (in the data set with Botrytis cinerea; with Pyrenophora teres; with Sphaerotheca fuliginea; in [2]; in the data set on Alternaria brassicae) was 90 to 100% in each case. Further, the inhibition at 20 ppm (in the data set with Alternaria alternata; with Fusarium culmorum; in the data set on Pyricularia Oryzae; in data set [3]; with Septoria tritici) was 90 to 100% in each case.

`C=C(OCC)c1cc(C2=NOCC(Cc3ccc(Cl)cc3Cl)N2)c(Oc2cccc(C3CC3)c2)nn1` (racemic) [Compound I-019, (5RS)-3-[3-(3-cyclopropylphenoxy)-6-(1-ethoxyvinyl)pyridazin-4-yl]-5-(2,4-dichlorobenzyl)-5,6-dihydro-4H-1,2,4-oxadiazine] displayed a chromatographic logP in [1] of 5.19. Further, the pest or weed control at 500 ppm (in the data set on Botrytis cinerea; with Pyrenophora teres; in the data set with Sphaerotheca fuliginea; in data set [2]; in the data set on Alternaria brassicae) was 90 to 100% in each case. Besides, the inhibition at 20 ppm is 90 to 100% in the data set on Alternaria alternata, 70 to 79% with Fusarium culmorum, 90 to 100% in the data set with Pyricularia Oryzae and 90 to 100% in [3].
